Source: patent US20100048462A1, “TRUNCATED PTH PEPTIDES WITH A CYCLIC CONFORMATION” (Zealand Pharma A/S, priority 2006, published 2010)
pEC50: −log10 of the molar value. Square brackets hold non-standard residues; d marks the D form. Peptide text beside a SMILES is read from it. hArg = N=C(N)NCCCC[C@H](N)C(=O)O; Ac5c = NC1(C(=O)O)CCCC1; Aib = CC(C)(N)C(=O)O

Assays:
[1] = molecular target: T1, PTH receptor 1 (Mus musculus, UniProt P41593); assay: MC3T3-E1 cAMP efficacy assay; type: cell-based, murine; settings: MC3T3-E1 cells; for pEC50: cAMP, 100 μM IBMX, 37° C.; for Emax ± SEM [pmol/well]: maximally inducible cAMP
T1 construct: host or cells: MC3T3-E1 subclone 4
T1 sequence (P41593 27-591): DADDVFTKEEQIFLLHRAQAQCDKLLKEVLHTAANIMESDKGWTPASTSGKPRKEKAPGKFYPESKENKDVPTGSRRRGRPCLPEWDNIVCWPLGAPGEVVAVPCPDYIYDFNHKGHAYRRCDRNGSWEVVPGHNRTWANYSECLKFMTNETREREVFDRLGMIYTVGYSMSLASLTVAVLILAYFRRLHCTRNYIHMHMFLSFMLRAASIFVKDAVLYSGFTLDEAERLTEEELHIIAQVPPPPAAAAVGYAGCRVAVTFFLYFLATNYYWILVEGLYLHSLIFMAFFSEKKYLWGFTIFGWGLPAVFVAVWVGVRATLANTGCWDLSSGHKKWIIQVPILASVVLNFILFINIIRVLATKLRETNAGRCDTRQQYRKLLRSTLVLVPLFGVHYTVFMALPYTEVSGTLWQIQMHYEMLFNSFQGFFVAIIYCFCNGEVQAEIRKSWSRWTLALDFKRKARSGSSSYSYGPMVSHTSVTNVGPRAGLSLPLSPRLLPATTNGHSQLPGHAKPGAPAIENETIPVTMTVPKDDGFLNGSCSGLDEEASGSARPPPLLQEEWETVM
Experimental: MC3T3-E1 cells were seeded at 10,000 cells/well in 96-microtiter plates and grown overnight before the efficacy assays. On the day of analysis the growth medium was carefully removed by suction. Cells were washed once with 200 μl TB/0.1% […]. The buffer was replaced with 100 μl reaction mixture (±test peptide, +100 μM IBMX) and incubated at 37° C. for 13 min. The reaction was stopped by addition of 25 μl of ice-cold 0.5 M HCl. Cells were in the following incubated on ice for 60 min. 75 μl acetate-buffer were added to each well in a 96-well cAMP FlashPlate. […] FlashPlates were incubated overnight at 4° C., emptied by suction and counted in a TopCounter.
Determinations were performed in triplicates at all doses. Standards were included as single determinations, duplicates or triplicates in each experiment, preferentially on each plate.
Efficacy was evaluated in the concentration range from […].
Concentration-dependent cAMP responses were imported into GraphPad Prism vers. 4, transformed and plotted. Curves were fitted with a function for sigmoidal dose response curve non-linear fit Y=Bottom+(Top-Bottom)/(1+10̂((LogEC50-X))) where X is the logarithm of concentration and Y is the response. Y starts at Bottom and goes to Top with a sigmoid shape. pEC50 and the maximally inducible concentration of cAMP were evaluated. Overall statistical differences were analyzed using one-way ANOVA. Post-hoc comparisons were made by the use of Fisher's Least Significance Test. Results were considered significant, when p was lower than 0.05.

[2] = molecular target: CYP2D6 (Homo sapiens, UniProt P10635); assay: CYP2D6 inhibition in pooled human liver microsomes; type: in vitro ADME; set-up: Pooled human liver microsomes (HLM, final concentration 0.05 mg protein/mL); tissue BD Biosciences 452161; host or cells: pooled human liver microsomes; settings: 10 μM compound, dextrorphan formation rate
Sequence of CYP2D6 (P10635 whole entry): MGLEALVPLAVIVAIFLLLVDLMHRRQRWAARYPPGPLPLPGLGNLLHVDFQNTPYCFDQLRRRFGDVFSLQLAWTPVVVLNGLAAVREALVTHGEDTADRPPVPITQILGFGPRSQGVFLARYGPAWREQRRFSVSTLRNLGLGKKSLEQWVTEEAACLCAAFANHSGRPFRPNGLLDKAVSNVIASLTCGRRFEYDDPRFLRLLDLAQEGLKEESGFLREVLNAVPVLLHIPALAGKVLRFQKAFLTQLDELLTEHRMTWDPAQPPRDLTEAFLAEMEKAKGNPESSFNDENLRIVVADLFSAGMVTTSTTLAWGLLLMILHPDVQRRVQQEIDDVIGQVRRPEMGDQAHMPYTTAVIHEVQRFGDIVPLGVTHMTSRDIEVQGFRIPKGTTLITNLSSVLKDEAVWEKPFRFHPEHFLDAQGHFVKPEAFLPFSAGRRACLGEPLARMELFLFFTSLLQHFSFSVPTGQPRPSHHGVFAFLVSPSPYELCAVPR
Procedure, shortened: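 Pooled HLM (0.05 mg/mL) in 0.1 M KPi pH 7.4 with 5 μM dextromethorphan and 10 μM test compound, preincubated 5 min at 37 °C, then started with NADPH-regenerating system for 5 min. Dextrorphan quantified by LC/MS/MS; activity expressed as % of vehicle; <70% considered significant.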

[3] = molecular target: T2, Saos-2 PTH1R (Homo sapiens, UniProt Q03431); assay: cAMP-efficacy assay in Saos-2 cells; type: cell-based; settings: for pEC50: cAMP, 100 μM IBMX, 37° C. 15 min, suffix of label = salt tested; for Emax ± SEM: relative effect to the control (SEQ ID NO: 32)
T2 construct: endogenous in cells; host or cells: Saos-2
T2 sequence (Q03431 27-593): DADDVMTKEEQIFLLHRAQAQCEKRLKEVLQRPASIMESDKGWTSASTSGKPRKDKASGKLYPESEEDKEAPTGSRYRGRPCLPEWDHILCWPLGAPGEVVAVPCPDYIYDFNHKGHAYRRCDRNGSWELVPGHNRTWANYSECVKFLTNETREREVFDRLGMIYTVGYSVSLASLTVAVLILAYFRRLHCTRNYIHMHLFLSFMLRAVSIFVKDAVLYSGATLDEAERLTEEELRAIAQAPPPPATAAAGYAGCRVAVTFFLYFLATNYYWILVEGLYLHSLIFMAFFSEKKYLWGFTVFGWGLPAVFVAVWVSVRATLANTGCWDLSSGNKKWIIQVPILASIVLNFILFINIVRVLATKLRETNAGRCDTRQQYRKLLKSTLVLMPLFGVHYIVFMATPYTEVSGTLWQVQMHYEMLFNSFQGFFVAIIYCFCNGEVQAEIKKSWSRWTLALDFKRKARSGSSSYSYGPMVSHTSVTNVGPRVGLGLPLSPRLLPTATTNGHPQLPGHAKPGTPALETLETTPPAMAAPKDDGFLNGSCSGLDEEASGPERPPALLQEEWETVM
Procedure, shortened: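 cAMP accumulation was assayed by FlashPlate after 15 min peptide stimulation at 37 °C of Saos-2 cells in Tyrode's buffer containing 100 μM IBMX and 0.1% BSA, with the reaction stopped by ice-cold HCl. Variable-slope logistic fitting gave EC50/pEC50, Hill coefficient and Emax, with single or triplicate points.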

[4] = test system: ovariectomized rats; settings: cited from earlier work; for bone-anabolic activity: ovariectomized rats
[5] = molecular target: T3, PTH1R (Homo sapiens, UniProt Q03431); settings: cited from earlier work
T3 sequence (Q03431 27-593): T2 sequence (Q03431 27-593)

Molecule | pEC50 [1] | Emax ± SEM [pmol/well] [1] | pEC50 [3] | Emax ± SEM [3] | bone-anabolic activity [4] | further results
CC[C@H](C)[C@H](NC(=O)[C@H](CCC(=O)O)NC(=O)C(C)(C)NC(=O)[C@@H](NC(=O)C1(N)CCCC1)C(C)C)C(=O)N[C@@H](CCC(N)=O)C(=O)N[C@@H](CC(C)C)C(=O)N[C@@H](CCSC)C(=O)N[C@@H](Cc1c[nH]cn1)C(=O)N[C@@H](CCC(N)=O)C(=O)N[C@@H](CCCCNC(=N)N)C(=O)N[C@@H](C)C(=O)N[C@@H](CCCCN)C(=O)N[C@@H](Cc1c[nH]c2ccccc12)C(N)=O [SEQ ID NO: 31, H-Ac5c-Val-Aib-Glu-Ile-Gln-Leu-Met-His-Gln-Har-Ala-Lys-Trp-NH2, reference compound] (H-[Ac5c]V[Aib]EIQLMHQ[hArg]AKW-NH2) | 8.40 | 4.5 ± 1.0 pmol/well | 7.66 | 1.07 ± 0.04 |  | CYP2D6 activity (% of vehicle) [2]: 22 % of vehicle
CC[C@H](C)[C@H](NC(=O)[C@H](CCC(=O)O)NC(=O)C(C)(C)NC(=O)[C@@H](NC(=O)C1(N)CCCC1)C(C)C)C(=O)N[C@@H](CCC(N)=O)C(=O)N[C@@H](CC(C)C)C(=O)N[C@@H](CCSC)C(=O)N[C@@H](Cc1c[nH]cn1)C(=O)N[C@@H](CCC(N)=O)C(=O)N[C@@H](CCCCNC(=N)N)C(=O)N[C@@H](C)C(=O)N[C@@H](CCCCN)C(=O)N[C@@H](Cc1c[nH]c2ccccc12)C(=O)N[C@@H](CC(C)C)C(=O)N[C@@H](CC(N)=O)C(=O)N[C@@H](CC(=O)O)C(N)=O [SEQ ID NO: 42, H-Ac5c-Val-Aib-Glu-Ile-Gln-Leu-Met-His-Gln-Har-Ala-Lys-Trp-Leu-Asn-Asp-NH2] (H-[Ac5c]V[Aib]EIQLMHQ[hArg]AKWLND-NH2) | 8.20 | 5.7 ± 1.0 pmol/well | 7.68 | 1.03 ± 0.07 |  | CYP2D6 activity (% of vehicle) ([2]; listed as 42): 29 % of vehicle; CYP2D6 activity (% of vehicle) ([2]; listed as SEQ ID NO:42): 29 % of vehicle
PTH(1-29): truncated PTH fragment from the literature (Murrills et al. 2004) (SVSEIQLMHNLGKHLNSMERVEWLRKKLQ; Parathyroid hormone; UniProt P01270 32-60, looked up, fragment) |  |  |  |  |  | bone-anabolic activity, fold less potent than PTH(1-34) ([4]; ovariectomized rat model): approximately 20 fold
[Aib^1.3, Phe^7, Nle^8, Arg^11, Ala^12, Trp^14]PTH(1-14) |  |  |  |  | did not exhibit any bone-anabolic activity | activation of the PTH1R in vitro [5]: activated the PTH1R in vitro
[Ala^1.3, Nle^8, Gln^10, Har^11, Trp^14, Arg^19, Tyr^21]rPTH(1-21) [MPTH(1-21)] |  |  |  |  | inactive | 
